Biological target: T1, NoCAR (Nocardia otitidiscaviarum, UniProt A0A378YSF8)
T1 construct: gene lgrD_6; pETDuet, T7 promoter, co-expressed with E. coli pyrophosphatase (EcPPase, no chain) in E. coli K12 MG1655 RARE; whole cells; CAR class approx. 130 kDa
T1 sequence (A0A378YSF8 1-1156): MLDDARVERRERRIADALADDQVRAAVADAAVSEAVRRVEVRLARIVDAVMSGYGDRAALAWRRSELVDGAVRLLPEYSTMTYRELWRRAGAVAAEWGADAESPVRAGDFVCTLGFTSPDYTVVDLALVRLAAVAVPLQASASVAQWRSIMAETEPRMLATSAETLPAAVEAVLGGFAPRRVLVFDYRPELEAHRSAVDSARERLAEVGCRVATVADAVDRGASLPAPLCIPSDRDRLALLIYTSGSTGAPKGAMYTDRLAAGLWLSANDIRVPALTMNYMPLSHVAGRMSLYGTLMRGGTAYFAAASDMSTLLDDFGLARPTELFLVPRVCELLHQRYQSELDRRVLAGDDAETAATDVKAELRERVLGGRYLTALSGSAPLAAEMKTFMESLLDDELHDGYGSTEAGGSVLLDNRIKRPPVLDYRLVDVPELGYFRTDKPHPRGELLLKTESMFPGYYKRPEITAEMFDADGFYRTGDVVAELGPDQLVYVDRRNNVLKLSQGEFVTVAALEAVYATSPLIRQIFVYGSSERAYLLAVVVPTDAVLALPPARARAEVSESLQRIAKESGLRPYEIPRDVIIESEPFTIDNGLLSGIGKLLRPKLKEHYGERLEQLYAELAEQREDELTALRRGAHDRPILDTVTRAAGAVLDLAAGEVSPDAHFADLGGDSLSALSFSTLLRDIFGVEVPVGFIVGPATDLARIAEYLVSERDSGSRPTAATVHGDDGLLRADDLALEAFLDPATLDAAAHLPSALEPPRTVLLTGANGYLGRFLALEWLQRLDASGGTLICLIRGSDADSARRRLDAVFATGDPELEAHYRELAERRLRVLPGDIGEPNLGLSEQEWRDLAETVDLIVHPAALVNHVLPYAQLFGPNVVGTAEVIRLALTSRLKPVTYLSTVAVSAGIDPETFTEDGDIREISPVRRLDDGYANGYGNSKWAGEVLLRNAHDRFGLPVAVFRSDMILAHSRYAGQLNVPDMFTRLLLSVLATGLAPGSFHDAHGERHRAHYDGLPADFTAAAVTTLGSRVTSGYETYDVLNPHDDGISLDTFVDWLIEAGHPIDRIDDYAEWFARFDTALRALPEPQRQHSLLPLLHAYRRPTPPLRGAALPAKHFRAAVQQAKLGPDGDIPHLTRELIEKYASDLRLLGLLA
Test: whole-cell biotransformation, ABAO assay of 3-hydroxybenzaldehyde at […] nm
Assay type: cell-based
Conditions: 2.5 mM substrate in PBS / minimal medium with glucose, growing E. coli cells, 35 °C; no added cofactor

In the case of `O=C(O)c1cccc(O)c1` [3-hydroxybenzoic acid], the “whole-cell biotransformation, ABAO assay of 3-hydroxybenzaldehyde at 360 nm” value was “The biotransformation consists of the conversion of 3-hydroxybenzoic acid to 3-hydroxybenzaldehyde”.
